{
  "source": "patent US20260345654A1",
  "about": "“2,8-DIHYDROXYQUINOLINE GLUCURONIDE DERIVATIVES WITH ENHANCED PROPERTIES FOR USE AS ANTICANCER, ANTIVIRAL, ANTIMICROBIAL, AND OTHER THERAPEUTIC APPLICATIONS” (priority 2023, published 2026)",
  "key": {"squamous cell carcinoma": {"test_system": "squamous cell carcinoma", "experiment": "Case study, topical W1469, squamous cell carcinoma (Individual 4)", "assay_type": "in vivo, human", "procedure": "(§1) Topical gel containing 0.5 mg/ml W1469 in proprietary aqueous alcohol gel, applied initially once daily using a suitable topical applicator.\n(§2) In general, the Treatment/Patient protocol used for the patient testing was as follows: • 1. Photograph the application site prior to starting the protocol. Note any changes in lesion size, color, etc. of treatment area. • 2. Remove a loaded syringe from the freezer, dry ice or refrigerator and allow to gradually warm to room temperature. • 3. Photograph the syringe each time prior to application. Note the color of the gel contained in the syringe. • 4. Lightly clean the skin surface with alcohol wipe. • 5. […] Let the liquid from the gel absorb into the site without disturbing. Apply once a day at the same time. • 6. Re-cap the syringe and store in the refrigerator until completely used. • 7. Repeat 1-6 each daily during application period. It is noted in this protocol that photographing the syringe used with each application period accomplishes two things.\nPhysician administered, variable treatment protocol, drug concentrations and vehicle carrier. A person with 2 mm ulcerative lesion (squamous cell carcinoma) to the post-auricular area of left side of the head. The lesion area had been biopsied and treated with cryotherapy one year prior. Lesion area had begun to reappear 3 months prior to this photo. After three days of once daily treatment, the same lesion was already reduced to approximately ½ of original size. […] Note: Subject's initial dosing schedule was once daily. […] Upon next visit (three days after initial dosing) […] dose was doubled while maintaining a once daily schedule. Over the next three days their lesion resolved completely and without any adverse reactions noted."}, "SU.86.86 cells": {"test_system": "SU.86.86 cells", "experiment": "In vitro anti-proliferation (CellTiter-Glo, 72 hr), SU.86.86", "assay_type": "cell-based", "procedure": "Commercially available 8HQ and freshly synthesized G2-8HQ were prepared for in vitro anti-proliferative studies against the following cell lines with and without the presence of 10 μM Cu(+2): (1) A549: […]; (2) BT-549: epithelial cells from ductal tumor; (3) DU-145: human prostate cancer; (4) PANC-1: pancreatic cancer; (5) SU.86.86: a new adoptive pancreatic cell for immunotherapy studies; (6) RL: non-Hodgkin's lymphoma; (7) LnCAP, Prostate cancer cell line; (8) A431, a squamous cell carcinoma line; and (9) UACC-62 a malignant melanoma cell line.\nWith regard to the study protocol used, the objective was to conduct a study of the cytotoxicity of W1469 against several cancer cell lines. In the study protocol, preparations for the A549 (Lung) cell line screen are given as an example. The following materials were used: (1) FBS (2) RPMI-1640 medium supplemented with 10% FBS:’ and (3) A549 Cells. The four samples tested are referred to as Items 1-4 below and were placed at 4 °C upon arrival. These four samples were as follows: • Item 1: Tube A (W1469) (500 uM when FBS added) • Item 2: Tube B (W1469g) (1000 uM when FBS added) • Item 3: Tube C (W1469) • Item 4: Tube D (W1469g)\nAdd 50 μL of above 2× stocks to appropriate wells to expose appropriate cells to the final dilutions of samples. Add 50 μL media to media and cell control wells and 50 μL media mix to vehicle control wells. Cells are exposed for 72 hr. Following a 72 hr exposure to Sample, perform a CTG assay on all remaining plates.\nAt the end of the 72 hr exposure period, remove plates for CellTiter-Glo assay from 37 °C, 5% CO2 incubator and place on the bench at room temperature for 30 mins. Add 100 μL CellTiter-Glo reagent, mix for 2 mins, followed by a further 10 min incubation at room temperature. Record luminescence. Tables showing the resulting plate layouts are included below/"}, "basal cell carcinoma": {"test_system": "basal cell carcinoma", "experiment": "Single patient clinical study, topical W1469, basal cell carcinoma", "assay_type": "in vivo, human", "source_text": "• Indication: Basil Cell Carcinoma • Rationale: Basil Cell Carcinoma is the most common form of skin cancer with 3.6 Million cases diagnosed each year and rising. It is estimated that 80% of all newly diagnosed skin cancers are BCC. Although rarely fatal, it can be painful and disfiguring and, in some cases, become dangerously invasive. The most common forms of treatment include surgery, radiation treatment, immunotherapy, systemic and topical chemotherapy, and other variations including laser therapy. The currently approved topical treatments for BCC are usually only recommended for more superficial tumors and more extensive monitoring is required because they are generally not effective in destroying cancer cell deeper below the surface. A more complete description of treatment options and their relative effectiveness has been described by the American Cancer Society. […] And if necessary, on a continuing ongoing basis.\nThe examined treatment approach studied here falls in the category of a topical chemotherapeutic. W1469 is a novel small molecule anti-cancer drug candidate which contains a tumor targeting functional group and has been shown effective against a variety of cancers in vitro. (most recently including squamous cell carcinoma)\nas §1, §2\n• 1. Toleration/toxicity • 2. Application methodology • 3. Any visual indications of efficacy • 4. Patient feedback Study Duration: Varied case by case. Generally, two weeks to two months\nA person with extensive basil cell carcinoma lesions on both sides of the face, forehead and ear. Note: the clinical study involving Individual 1, due to limitations in available material, at the time was performed with very low concentrations of W1469 and the patient was instructed to use only on the nose area and under the area of the left cheek. The treatment was thus self-administered. A photo of the individual before treatment is included in FIG. 23. Patient condition was monitored and photographed regularly during the treatment period.\nSelf-administered, variable treatment protocol, drug concentrations and vehicle carrier. […] The lesion was tender to palpation especially to the center and the area around the lesion was with hyperpigmentation. […] No necrotic or hyperkeratotic areas were noted. […] Therapy was reintroduced on a three times-daily dosing schedule and with ethanol-based carrier molecule. […] The centralized portion of the lesion slowly healed over the next 5-day period. Continued healing of the centralized portion of the lesion during the 5-day period status post central necrotic tissue extrusion was shown. During this period the lesion began to flatten, the area became pain free, and localized tissue became less erythematic. A bloody clot in central area resolved and crater size decreased."}, "Chemical stability": {"experiment": "Chemical stability", "assay_type": "physicochemical"}, "[1]": {"conditions": "Individual 1, three week period, topical"}, "[2]": {"conditions": "Individual 2, after first week of treatment"}},
  "note": "“Also recorded” adds a separate entry of the source. Where two headings read alike, the source gives them in different places.",
  "data": [
    {"smiles": "O=C(O)[C@H]1O[C@@H](Oc2ccc3cccc(O)c3n2)[C@H](O)[C@@H](O)[C@@H]1O", "note": "[G2-8HQ, 8-Hydroxy-2-quinolinyl beta-D-glucopyranosiduronic acid]", "values": [
      {"measurement": "lesion size (fraction of original size)", "setting": "squamous cell carcinoma; Individual 4, after three days of once daily treatment", "result": "approximately ½"},
      {"measurement": "adverse reactions", "setting": "squamous cell carcinoma; Individual 4, once daily, dose doubled after three days", "result": "no adverse reactions"},
      {"measurement": "lesion resolution", "setting": "squamous cell carcinoma; Individual 4, regular treatment for one week", "result": "complete resolution of the patient's lesion"},
      {"measurement": "cytotoxicity", "setting": "SU.86.86 cells; 1 and 0.5 μM, presence of Cu^+2 ions, wide standard deviation", "result": "in a percentage of cases, all of the cancer cells were killed at concentrations between at 1 and 0.5 μM; also recorded: in some % of the screens all the cancer cells were killed at these concentrations"},
      {"measurement": "IC50", "setting": "SU.86.86 cells; +Cu (10 μM), 72 hr, G2-8HQ values based on MW of apo form (337), read-out: IC50", "result": 13, "unit": "µM"},
      {"measurement": "IC50", "setting": "SU.86.86 cells; Homo sapiens, SU.86.86, 72 h, +Cu (10 μM), 72 hr, G2-8HQ values based on MW of apo form (337), read-out: IC50", "result": 10, "unit": "µM"},
      {"measurement": "IC50", "setting": "SU.86.86 cells; Homo sapiens, SU.86.86, 72 h, −Cu, 72 hr, read-out: IC50", "result": "> 500", "unit": "µM"},
      {"measurement": "IC50", "setting": "SU.86.86 cells; Homo sapiens, SU.86.86, complexed with Cu, multiplied by 337/776=0.43, column 3 duplicate of column 2, read-out: IC50 (adjusted to MW of copper complex)", "result": 4.3, "unit": "µM"},
      {"measurement": "IC50", "setting": "SU.86.86 cells; complexed with Cu, multiplied by 337/776=0.43, column 3 duplicate of column 2, listed as W1469, read-out: IC50 (adjusted to MW of copper complex)", "result": 5.6, "unit": "µM"},
      {"measurement": "patient's condition", "setting": "basal cell carcinoma; [1]", "result": "significant amelioration of the patient's condition"},
      {"measurement": "scarring or other disfigurement", "setting": "basal cell carcinoma; [1]", "result": "did not result in scarring or other disfigurement"},
      {"measurement": "patient's condition", "setting": "basal cell carcinoma; Individual 2, after 7 days of treatment (FIG. 26)", "result": "significant amelioration of the patient's condition"},
      {"measurement": "hyperpigmentation", "setting": "basal cell carcinoma; [2]", "result": "hyperpigmentation is markedly reduced"},
      {"measurement": "lesion response", "setting": "basal cell carcinoma; [2]", "result": "marked improvement in the lesion was obtained with almost complete resolution"},
      {"measurement": "pain", "setting": "basal cell carcinoma; [2]", "result": "Area is pain free"},
      {"measurement": "recurrence", "setting": "basal cell carcinoma; Individual 2, one month following the treatment", "result": "another lesion returned to the patient's right cheek"},
      {"measurement": "lesion hyperkeratosis", "setting": "basal cell carcinoma; Individual 2, second lesion", "result": "marked reduction in lesion hyperkeratosis"},
      {"measurement": "centralized necrotic core", "setting": "basal cell carcinoma; Individual 2, second lesion, after two days", "result": "the centralized necrotic core came out of the lesion"},
      {"measurement": "lesion size", "setting": "basal cell carcinoma; Individual 2, second lesion, three times daily, ethanol-based carrier", "result": "lesion size markedly decreased"},
      {"measurement": "stability", "setting": "Chemical stability; aqueous solutions, pH values lower than 8, or over time in organic solvents", "result": "less stable"},
      {"measurement": "stability", "setting": "Chemical stability; dissolving in DMSO (without copper)", "result": "yields over time the precipitated degradation product of the keto form of 2-8HQ"},
      {"measurement": "stability", "setting": "Chemical stability; neutral or physiological pH in the plasma", "result": "chemically stable"},
      {"measurement": "stability", "setting": "Chemical stability; pH of 5", "result": "degrade the compound almost immediately"}
    ]}
  ]
}
